Assays:
mTOR = target: T1, mTOR (Homo sapiens, UniProt P42345); experiment: Biochemical assay for m-TOR by TR-FRET; conditions: 8 μM ATP, 400 nM GFP-4EBP1, 0.5 nM mTOR
T1 construct: purchased Invitrogen Corporation (Carlsbad/CA, USA) PV4753
Summary of the method: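 Steps: ATP (8 μM final) plus GFP-4EBP1 (400 nM final) combined with mTOR (0.5 nM final), incubated at rt; buffer HEPES pH 7.5 with 10 mM MnCl2, NaCl, EGTA, DTT. Then stopped with EDTA/Tb3+-anti-p4EBP1 pT46 Ab (0.5 nM). Plates read after 15 min.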

[1] = tested on: PKB Ser473 phosphorylation in Rat1-myr-HA-p110 delta cells; experiment: Reverse protein array assay, PKB Ser473 phosphorylation in Rat1-myr-p110 delta cells; assay type: cell-based; conditions: read-out: p-PKB IC50
Summary of the method: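 Measured: PKB Ser473 phosphorylation by reverse protein array in Rat1 cells expressing myr-HA-p110 alpha, beta or delta, after 30 min compound treatment at 37 °C with 0.2% DMSO vehicle.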

[2] = tested on: S6 Ribosomal Protein phosphorylation Ser235/236 in TSC1 null mouse embryo fibroblast (MEF) cells; experiment: Reverse protein array assay, S6 Ribosomal Protein phosphorylation Ser235/236 in TSC1 null MEF cells; assay type: cell-based; conditions: 1 h, pS6 ribosomal protein Ser235/236, 60 minutes incubation, read-out: p-S6 IC50
Summary of the method: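 TSC1−/− MEFs, seeded and held ≥20 h at 37 °C/5% CO2, were exposed to 8-step serial compound dilutions (0.02% DMSO final; DMSO vehicle control) for 60 min at 37 °C. Cells were then lysed on ice for 10 min and lysates spotted onto reverse protein array chips.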

T1 sequence (P42345 1360-2549 limits assumed): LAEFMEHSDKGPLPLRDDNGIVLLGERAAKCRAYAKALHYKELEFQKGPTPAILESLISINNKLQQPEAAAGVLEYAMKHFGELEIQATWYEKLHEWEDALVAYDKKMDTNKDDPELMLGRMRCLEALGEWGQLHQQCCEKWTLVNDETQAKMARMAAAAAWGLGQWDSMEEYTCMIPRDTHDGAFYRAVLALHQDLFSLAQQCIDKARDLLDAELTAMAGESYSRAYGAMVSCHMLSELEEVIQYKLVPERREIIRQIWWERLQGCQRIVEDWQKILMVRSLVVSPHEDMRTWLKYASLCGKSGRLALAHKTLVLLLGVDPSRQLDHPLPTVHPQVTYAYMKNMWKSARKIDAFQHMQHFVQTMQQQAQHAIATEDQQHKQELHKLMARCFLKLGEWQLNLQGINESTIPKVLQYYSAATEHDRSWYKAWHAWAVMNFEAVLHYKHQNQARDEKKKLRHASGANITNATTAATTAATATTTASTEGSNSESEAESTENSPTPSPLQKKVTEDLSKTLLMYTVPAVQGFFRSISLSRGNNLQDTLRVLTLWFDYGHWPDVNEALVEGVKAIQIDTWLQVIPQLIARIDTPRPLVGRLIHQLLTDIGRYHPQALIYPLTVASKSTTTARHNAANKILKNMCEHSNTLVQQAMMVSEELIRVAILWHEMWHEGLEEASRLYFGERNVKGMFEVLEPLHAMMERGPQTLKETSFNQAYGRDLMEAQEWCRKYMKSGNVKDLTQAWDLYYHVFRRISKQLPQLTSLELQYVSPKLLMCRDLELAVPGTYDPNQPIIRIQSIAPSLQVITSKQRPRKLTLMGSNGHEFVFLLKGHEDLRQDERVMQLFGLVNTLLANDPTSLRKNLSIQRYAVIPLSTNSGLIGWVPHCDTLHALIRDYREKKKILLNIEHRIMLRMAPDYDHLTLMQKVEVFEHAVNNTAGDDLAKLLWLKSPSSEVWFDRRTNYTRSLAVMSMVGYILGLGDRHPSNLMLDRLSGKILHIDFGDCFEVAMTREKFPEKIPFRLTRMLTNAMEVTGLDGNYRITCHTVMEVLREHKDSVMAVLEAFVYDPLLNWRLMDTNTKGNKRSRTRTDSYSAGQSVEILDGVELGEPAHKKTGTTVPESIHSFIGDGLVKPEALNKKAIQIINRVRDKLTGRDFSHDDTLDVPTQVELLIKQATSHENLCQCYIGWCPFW

Structure (SMILES) | IC50 (mTOR) | IC50 [1] | IC50 [2]
COc1ncc(-c2ccc3ncc4c(c3c2)n(-c2cn(C)nc2C)c(=O)n4C)cc1N [Example 127, 8-(5-Amino-6-methoxy-pyridin-3-yl)-1-(1,3-dimethyl-1H-pyrazol-4-yl)-3-methyl-1,3-dihydro-imidazo[4,5-c]quinolin-2-one] | 0.005 µM | 0.018 µM | 0.003 µM
Cc1nn(C)cc1-n1c(=O)n(C)c2cnc3ccc(-c4cnc5ccn(C)c5c4)cc3c21 [Example 129, 1-(1,3-Dimethyl-1H-pyrazol-4-yl)-3-methyl-8-(1-methyl-1H-pyrrolo[3,2-b]pyridin-6-yl)-1,3-dihydro-imidazo[4,5-c]quinolin-2-one] | 0.005 µM | 0.046 µM | 0.001 µM
CNc1ncc(-c2ccc3ncc4c(c3c2)n(-c2cn(C(C)C)nc2C)c(=O)n4C)cc1F [Example 141.3, 8-(5-Fluoro-6-methylamino-pyridin-3-yl)-1-(1-isopropyl-3-methyl-1H-pyrazol-4-yl)-3-methyl-1,3-dihydro-imidazo[4,5-c]quinolin-2-one] | 0.027 µM | 0.035 µM | 0.002 µM
Cc1nn(C(C)C)cc1-n1c(=O)n(C)c2cnc3ccc(-c4cnc(N)c(F)c4)cc3c21 [Example 142.3, 8-(6-Amino-5-fluoro-pyridin-3-yl)-1-(1-isopropyl-3-methyl-1H-pyrazol-4-yl)-3-methyl-1,3-dihydro-imidazo[4,5-c]quinolin-2-one] | 0.017 µM | 0.023 µM | 0.001 µM
CNc1ncc(-c2ccc3ncc4c(c3c2)n(-c2c(C)nn(C)c2C)c(=O)n4C)cc1C(F)(F)F [Example 144.1, 3-Methyl-8-(6-methylamino-5-trifluoromethyl-pyridin-3-yl)-1-(1,3,5-trimethyl-1H-pyrazol-4-yl)-1,3-dihydro-imidazo[4,5-c]quinolin-2-one] | 0.274 µM | 0.084 µM | 0.002 µM
Cc1nn(C)c(C)c1-n1c(=O)n(C)c2cnc3ccc(-c4cnc(N)c(Cl)c4)cc3c21 [Example 148.1, 8-(6-Amino-5-chloro-pyridin-3-yl)-3-methyl-1-(1,3,5-trimethyl-1H-pyrazol-4-yl)-1,3-dihydro-imidazo[4,5-c]quinolin-2-one] | 0.095 µM | 0.09 µM | 0.022 µM
Cc1nn(C)cc1-n1c(=O)n(C)c2cnc3ccc(-c4cnc(N)c(Cl)c4)cc3c21 [Example 148.2, 8-(6-Amino-5-chloro-pyridin-3-yl)-1-(1,3-dimethyl-1H-pyrazol-4-yl)-3-methyl-1,3-dihydro-imidazo[4,5-c]quinolin-2-one] | 0.009 µM | 0.012 µM | 0.001 µM
CCNc1cc(-c2ccc3ncc4c(c3c2)n(-c2cn(C)nc2C)c(=O)n4C)cnc1CO [Example 155.1, 1-(1,3-Dimethyl-1H-pyrazol-4-yl)-8-(5-ethylamino-6-hydroxymethyl-pyridin-3-yl)-3-methyl-1,3-dihydro-imidazo[4,5-c]quinolin-2-one] | 0.003 µM | 0.019 µM | 0.002 µM
CCNc1cc(-c2ccc3ncc4c(c3c2)n(-c2cn(CC)nc2C)c(=O)n4C)cnc1CO [Example 155.2, 8-(5-Ethylamino-6-hydroxymethyl-pyridin-3-yl)-1-(1-ethyl-3-methyl-1H-pyrazol-4-yl)-3-methyl-1,3-dihydro-imidazo[4,5-c]quinolin-2-one] | 0.012 µM | 0.013 µM | 0.001 µM
CNc1cc(-c2ccc3ncc4c(c3c2)n(-c2cn(C(C)C)nc2C)c(=O)n4C)cnc1CO [Example 158.2, 8-(6-Hydroxymethyl-5-methylamino-pyridin-3-yl)-1-(1-isopropyl-3-methyl-1H-pyrazol-4-yl)-3-methyl-1,3-dihydro-imidazo[4,5-c]quinolin-2-one] | 0.004 µM | 0.015 µM | 0.001 µM
